In patent US20230157289A1, “HERBICIDAL PHENYLURACILS” (BASF-SE, priority 2020, published 2023):
Read-outs that look alike come from different tables or passages of the source.

What was measured:
Format in all cases: in vivo
[1] = test system: Amaranthus retroflexus; experiment: greenhouse post-emergence herbicidal test, AMARE
Excerpt: (§1) The culture containers used were plastic flowerpots containing loamy sand with approximately 3.0% of humus as the substrate. The seeds of the test plants were sown separately for each species.
(§2) For the pre-emergence treatment, the active ingredients, which had been suspended or emulsified in water, were applied directly after sowing by means of finely distributing nozzles. The containers were irrigated gently to promote germination and growth and subsequently covered with transparent plastic hoods until the test plants had rooted. This cover caused uniform germination of the test plants, unless this had been impaired by the active ingredients. For the post-emergence treatment, the test plants were first grown to a height of 3 to 15 cm, depending on the plant habit, and only then treated with the active ingredients which had been suspended or emulsified in water. For this purpose, the test plants were either sown directly and grown in the same containers, or they were first grown separately as seedlings and transplanted into the test containers a few days prior to treatment.
(§3) Depending on the species, the test plants were kept at 10 - 25° C. or 20 - 35° C., respectively. The test period extended over 2 to 4 weeks. During this time, the test plants were tended, and their response to the individual treatments was evaluated.
(§4) Evaluation was carried out using a scale from 0 to 100. 100 means no emergence of the test plants, or complete destruction of at least the aerial moieties, and 0 means no damage, or normal course of growth. A good herbicidal activity is given at values of at least 70 and a very good herbicidal activity is given at values of at least 85.

[2] = test system: Setaria viridis; experiment: greenhouse post-emergence herbicidal test, SETVI
Excerpt: as §1, §2, §3, §4

[3] = test system: Chenopodium album; experiment: greenhouse post-emergence herbicidal test, CHEAL
Excerpt: as §1, §2, §3, §4

[4] = test system: Alopecurus myosuroides; experiment: greenhouse post-emergence herbicidal test, ALOMY; conditions: scale from 0 to 100
Excerpt: as §1, §2, §3, §4

[5] = test system: Avena fatua; experiment: greenhouse post-emergence herbicidal test, AVEFA; conditions: application rate 2 g/ha, scale from 0 to 100
Excerpt: as §1, §2, §3, §4

[6] = test system: Echinocloa crus-galli; experiment: greenhouse post-emergence herbicidal test, ECHCG; conditions: scale from 0 to 100
Excerpt: as §1, §2, §3, §4

[7] = test system: Lolium multiflorum; experiment: greenhouse post-emergence herbicidal test, LOLMU; conditions: scale from 0 to 100
Excerpt: as §1, §2, §3, §4

[8] = application rate 16 g/ha, AMARE, scale from 0 to 100, read-out: herbicidal activity
[9] = application rate 16 g/ha, SETVI, scale from 0 to 100, read-out: herbicidal activity
[10] = application rate 16 g/ha, CHEAL, scale from 0 to 100, read-out: herbicidal activity

COC(Oc1ccccc1Oc1cc(-n2c(=O)cc(C(F)(F)F)n(C)c2=O)c(F)cc1Br)C(=O)NS(C)(=O)=O (racemic) [example 8, rac-2-[2-[2-bromo-4-fluoro-5-[3-methyl-2,6-dioxo-4-(trifluoromethyl)pyrimidin-1-yl]phenoxy]phenoxy]-2-methoxy-N-methylsulfonyl-acetamide]
pest or weed control at 16 g/ha [1, 8]: > 85%
pest or weed control at 16 g/ha [2, 9]: > 85%
pest or weed control at 16 g/ha [3, 10]: > 85%

CCOC(=O)C(F)Oc1ccccc1Oc1cc(-n2c(=O)cc(C(F)(F)F)n(C)c2=O)c(F)cc1Br (racemic) [example 10, ethyl rac-2-[2-[2-bromo-4-fluoro-5-[3-methyl-2,6-dioxo-4-(trifluoromethyl)pyrimidin-1-yl]phenoxy]phenoxy]-2-fluoro-acetate]
pest or weed control at 16 g/ha [1, 8]: > 85%
pest or weed control at 16 g/ha [2, 9]: > 85%
pest or weed control at 16 g/ha [3, 10]: > 85%

COC(=O)C(OC)Oc1ncccc1Oc1cc(-n2c(=O)cc(C(F)(F)F)n(C)c2=O)c(F)cc1Br (racemic) [example 12, methyl rac-2-[[3-[2-bromo-4-fluoro-5-[3-methyl-2,6-dioxo-4-(trifluoromethyl)pyrimidin-1-yl]phenoxy]-2-pyridyl]oxy]-2-methoxy-acetate]
pest or weed control at 16 g/ha [1, 8]: > 85%
pest or weed control at 16 g/ha [3, 10]: > 85%

COC(=O)C(OC)Oc1ccccc1Oc1cc(-n2c(=O)cc(C(F)(F)F)n(C)c2=O)c(F)cc1Br (centres unmarked) [example 1, Methyl 2-[2-[2-bromo-4-fluoro-5-[3-methyl-2,6-dioxo-4-(trifluoromethyl)pyrimidin-1-yl]phenoxy]phenoxy]-2-methoxy-acetate]
damages ([4]; application rate 4 g/ha): 95
damages ([4]; application rate 8 g/ha): 95
pest or weed control at 16 g/ha ([1]; read-out: herbicidal activity): > 85%
damages [5]: 85
damages ([6]; application rate 1 g/ha): 90
damages ([6]; application rate 2 g/ha): 98
pest or weed control at 16 g/ha ([2]; read-out: herbicidal activity): > 85%
damages ([7]; application rate 4 g/ha): 75
damages ([7]; application rate 8 g/ha): 85
pest or weed control at 16 g/ha ([3]; read-out: herbicidal activity): > 85%

COCCOC(=O)C(OC)Oc1ccccc1Oc1cc(-n2c(=O)cc(C(F)(F)F)n(C)c2=O)c(F)cc1Br (racemic) [example 6, 2-methoxyethyl rac-2-[2-[2-bromo-4-fluoro-5-[3-methyl-2,6-dioxo-4-(trifluoromethyl)pyrimidin-1-yl]phenoxy]phenoxy]-2-methoxy-acetate]
pest or weed control at 16 g/ha [1, 8]: > 85%
pest or weed control at 16 g/ha [2, 9]: > 70%
pest or weed control at 16 g/ha [3, 10]: > 70%

COC(=O)C(OC)Oc1ccccc1Oc1cc(-n2c(=O)c(C)c(C(F)(F)F)n(C)c2=O)c(F)cc1Br (racemic) [example 11, methyl rac-2-[2-[2-bromo-5-[3,5-dimethyl-2,6-dioxo-4-(trifluoromethyl)pyrimidin-1-yl]-4-fluoro-phenoxy]phenoxy]-2-methoxy-acetate]
pest or weed control at 16 g/ha [1, 8]: > 85%
pest or weed control at 16 g/ha [2, 9]: > 85%
pest or weed control at 16 g/ha [3, 10]: > 85%

C#CCOC(=O)C(OC)Oc1ccccc1Oc1cc(-n2c(=O)cc(C(F)(F)F)n(C)c2=O)c(F)cc1Br (racemic) [example 5, prop-2-ynyl rac-2-[2-[2-bromo-4-fluoro-5-[3-methyl-2,6-dioxo-4-(trifluoromethyl)pyrimidin-1-yl]phenoxy]phenoxy]-2-methoxy-acetate]
pest or weed control at 16 g/ha [1, 8]: > 85%
pest or weed control at 16 g/ha [2, 9]: > 85%
pest or weed control at 16 g/ha [3, 10]: > 85%

COC(=O)C(Oc1ccccc1Oc1cc(-n2c(=O)cc(C(F)(F)F)n(C)c2=O)c(F)cc1Br)SC (racemic) [example 9, methyl rac-2-[2-[2-bromo-4-fluoro-5-[3-methyl-2,6-dioxo-4-(trifluoromethyl)pyrimidin-1-yl]phenoxy]phenoxy]-2-methylsulfanyl-acetate]
pest or weed control at 16 g/ha [1, 8]: > 85%
pest or weed control at 16 g/ha [2, 9]: > 85%
pest or weed control at 16 g/ha [3, 10]: > 85%

C=CCOC(=O)C(OC)Oc1ccccc1Oc1cc(-n2c(=O)cc(C(F)(F)F)n(C)c2=O)c(F)cc1Br (racemic) [example 4, allyl rac-2-[2-[2-bromo-4-fluoro-5-[3-methyl-2,6-dioxo-4-(trifluoromethyl)pyrimidin-1-yl]phenoxy]phenoxy]-2-methoxy-acetate]
pest or weed control at 16 g/ha [1, 8]: > 85%
pest or weed control at 16 g/ha [2, 9]: > 85%
pest or weed control at 16 g/ha [3, 10]: > 85%

COC(=O)C(OC)Oc1ccccc1Oc1nc(-n2c(=O)cc(C(F)(F)F)n(C)c2=O)c(F)cc1Br (centres unmarked) [cmpd I.a.646 (WO 17/202768)]
damages ([4]; application rate 4 g/ha): 50
damages ([4]; application rate 8 g/ha): 70
damages [5]: 40
damages ([6]; application rate 1 g/ha): 25
damages ([6]; application rate 2 g/ha): 65
damages ([7]; application rate 4 g/ha): 60
damages ([7]; application rate 8 g/ha): 65

COC(=O)C(OC)Oc1ccccc1Oc1cc(-n2c(=O)cc(C(F)(F)F)n(C)c2=O)c(F)cc1Cl (centres unmarked) [cmpd 3 (WO 11/137088)]
damages ([4]; application rate 4 g/ha): 75
damages ([4]; application rate 8 g/ha): 80
damages [5]: 65
damages ([6]; application rate 1 g/ha): 45
damages ([6]; application rate 2 g/ha): 90
damages ([7]; application rate 4 g/ha): 60
damages ([7]; application rate 8 g/ha): 75
